# Marks after values point to notes of the source that are not given here.
# Columns and labels:
# [1] = test system: Antibiotika-induzierte Kolitis in Hamstern; assay: Antibiotic (clindamycin)-induced colitis in hamsters, in vivo; set-up: species or system syrischen Hamstern (LUG)
# Protocol: Man verabreicht männlichen, 80-120 g schweren syrischen Hamstern (LUG) eine einmalige Dosis von 175 mg/kg Clindamycin-phosphat oder Clindamycin-hydrochlorid intraperitoneal, um eine Kolitis zu induzieren. Ungefähr 7 Stunden nach dieser Injektion verabreicht man den Tieren die zu testende Verbindung oral oder intraperitoneal. Während einer Periode von 4 weiteren Tagen wird diese Therapie zweimal täglich wiederholt. Für die orale Verabreichung wurde die zu testende Verbindung in Wasser suspendiert oder in Dimethylsulfoxid gelöst und mittels einer Magensonde verabreicht. Der Effekt der Therapie wurde durch das sogenannte "Hazard"-Verhältnis bestimmt. Es handelt sich dabei um das Verhältnis der Sterblichkeitsrate von Tieren, welche mit der zu testenden Verbindung behandelt worden sind, im Vergleich zu den Tieren, welche nur mit Vehikel behandelt worden sind. Die Sterblichkeitsrate wurde zweimal täglich bestimmt und wurde durch Vergleich der Ueberlebenskurven für jede Gruppe ausgewertet. Für jede Gruppe von Versuchstieren wurde die Kaplan-Meier-Schätzung der Ueberlebenskurve berechnet, und es wurde der Mantel-Cox-Test verwendet, um die Ueberlebenskurve der mit Inhibitor behandelten Gruppe mit derjenigen der nur mit Vehikel behandelten Gruppe zu vergleichen. Ein Hazard-Verhältnis von 1,0 bedeutet, dass der Effekt der Therapie nicht besser ist, als derjenige der mit dem Vehikel allein erzielt wird, währenddem ein Hazard-Verhältnis (>1.0) bedeutet, das die Therapie die Ueberlebensrate im Vergleich zu derjenigen Gruppe, welche nur mit dem Vehikel behandelt worden ist, verbessert.
# LTB₄ = assay: Rat colon mucosa in vitro (Ussing short-circuit technique), LTB₄-induced electrolyte secretion; type: cell-based, Ratte; conditions: 6 animals
# Text: (§1) Das Bioassay-System des Versuches mit der Mucosa des Rattenkolons basiert auf der Messung der durch Absorption oder Sekretion bewirkten Aenderungen im Salztransport durch das tierische Gewebe, wobei man die durch Ussing et al. beschriebene Standard-Kurzschluss-Technik verwendet, Acta Physiol. Scand. 23, 110-127 (1951). Diarrhö ist das häufigste Symptom bei gastrointestinalen Entzündungen und tritt bei allen Typen der Enteritis auf. Pantera, et al., Ital. J. Gastroenterol. 13: 24-27 (1981); Sales, et al., Arch. Int. Med. 143: 294-299 (1983); Hodgson, Br. J. Clin. Pharmac. 14: 159-270 (1982). Diarrhö wird durch eine Abnahme in der Salzabsorption oder eine Zunahme in der Salzsekretion im Darm bewirkt und kann durch die oben erwähnte Methode von Ussing et al. in vitro quantifiziert werden. Man entfernt von 200-250 g schweren Tieren ein 1 cm langes Segment des Kolons, behandelt dieses in vitro mit Leukotrienen oder Bradykinin, welche die Salzsekretion fördern, und misst die erhaltene Aenderung im Netto-Salztransport, welche in Gegenwart und in Abwesenheit von 6-Acetyl-7-[5-(4-acetyl-3-hydroxy-2-propylphenoxy)pentyloxy] -3,4-dihydro-2H-1-benzopyran-2-carbonsäure als Hemmer erhalten wird. Gewebeproben werden paarweise in Ussing-Kammern befestigt und mit automatischen Spannungsklemmen (von der University of Iowa Bioengineering Department) kurzgeschlossen. […]
# LTC₄ = assay: Rat colon mucosa in vitro (Ussing short-circuit technique), LTC₄-induced electrolyte secretion; type: cell-based, Ratte; conditions: 6 animals
# Text: as §1
# LTD₄ = assay: Rat colon mucosa in vitro (Ussing short-circuit technique), LTD₄-induced electrolyte secretion; type: cell-based, Ratte; conditions: 6 animals
# Text: as §1
# LTE₄ = assay: Rat colon mucosa in vitro (Ussing short-circuit technique), LTE₄-induced electrolyte secretion; type: cell-based, Ratte; conditions: 6 animals
# Text: as §1
# Bradykinin = assay: Rat colon mucosa in vitro (Ussing short-circuit technique), bradykinin-induced secretion; type: cell-based, Ratte; conditions: Figur 1; result in words
# Text: as §1
# [2] = test system: Essigsäure-induzierte Colitis in Ratten; assay: Acetic acid-induced colitis in rats, in vivo (myeloperoxidase in colon mucosa); set-up: species or system Ratten (Sprague-Dawley)
# Text: Der Essigsäure-induzierte-Colitis-Bioassay an Ratten ist durch J.E. Krawisz et al. in Amer. J. Proc. Gastro. Col. Rec. Surg. 31, 11-18 (1980) und P. Sharon und W.F. Stenson in Gastroenterology 88, 55-63 (1985) und 86, 453-460 (1984) beschrieben worden. Die Essigsäure-induzierte Colitis ist durch eine Wanderung von Entzündungszellen in das Kolon charakterisiert. Die Anzahl derartiger Zellen in der Mucosa kann bestimmt werden, indem man die Aktivität der Myeloperoxidase, einem Marker-Enzym für diese Zellen, misst. Eine positive gewünschte Wirkung zeigt sich in einer Reduktion des hohen Myeloperoxidase-Spiegels, der durch die Essigsäure verursacht wird. Männliche, 150-300 g schwere Ratten (Sprague-Dawley) werden während 2 Tagen, zweimal täglich entweder mit dem Vehikel (Wasser oder Dimethylsulfoxid) oder der im Wasser suspendierten oder in Dimethylsulfoxid gelösten Testsubstanz oral vorbehandelt. Am 3. Tag behandelt man die Tiere noch einmal wie an den beiden Vortagen, anästhetisiert mit Metofan, injiziert 2 ml 2,5-proz. Essigsäure mittels einer Spritze in das Lumen des Kolons und unmittelbar danach 3 ml Luft und eine Spüllösung, bestehend aus 3 ml Phosphat-gepufferter Kochsalzlösung, […] genügend lange im Lumen, um eine Entzündung zu induzieren, ohne jedoch schwere Nekrose oder irreversible Schäden zu bewirken). […]
# [3] = test system: Carrageenin-induzierte Colitis in Meerschweinchen; assay: Carrageenin-induced colitis in guinea pigs, in vivo (water transport in distal colon); set-up: species or system Meerschweinchen (Hartley); conditions: 10 bzw. 30 mg/kg oral; Figur 5
# Text: Der Carrageenin-induzierte-Colitis-Bioassay an Meerschweinchen ist durch A. B. Onderdonk in Inflammatory Bowel Diseases, Martinus Nijhoff Publ., Boston, Massachusetts, Seiten 126-134 (1982) und in Human Intestinal Microflora in Health and Disease (D. J. Hentger. ed), Academic Press, New York, 1983, Seiten 447-479 beschrieben worden. Das aus Rotalgen herstammende Polysaccharid Jotacarrageenin bewirkt in Meerschweinchen eine Colitis, welche der ulcerativen Colitis im Menschen ähnlich ist. Männliche und weibliche, 400-650 g Meerschweinchen (Hartley) erhielten via Trinkwasser täglich eine 3-proz. Lösung von abgebautem Carrageenin. Nach etwa 7 Tagen begannen die Versuchstiere eine Diarrhö zu entwickeln, nahmen an Gewicht nicht mehr zu und wurden lethargisch. Nachdem die Versuchstiere während 14 Tagen auf diese Weise Carrageenin verabreicht erhielten, wurde die Diarrhö quantifiziert, und zwar durch Messung des Wassertransportes in den distalen Teil des Kolons durch einfache Pass-Perfusion unter Verwendung von 14C-Polyäthylenglykol 4000 (PEG 4000) als Marker. Kontrolltiere erhielten eine wässrige Trinklösung, enthaltend 3-proz. mannitol anstelle des Carrageenins. Gleichzeitig wurden zufällig ausgewählte Versuchstiere aus diesen beiden Gruppen zweimal täglich mit der Testsubstanz oral behandelt.
# [4] = Inhibitor Konzentration 1 Mikromol
# [5] = Inhibitor Konzentration 10 Mikromol
# [6] = 10 mg/kg intraperitoneal in 0,075 ml PEG-400, twice daily, >1.0 = survival better than vehicle
# [7] = 10 mg/kg oral in 0,15 ml Wasser, twice daily
compound,measurement,setting,value
"6-Acetyl-7-[5-(4-acetyl-3-hydroxy-2-propylphenoxy)pentyloxy]-3,4-dihydro-2H-1-benzopyran-2-carbonsäure-hexylesters",Hazardverhältnis,[1]; 20 µMol/kg oral (Tabelle 3),"1,64"
"CCCc1c(OCCCCCOc2cc3c(cc2C(C)=O)CCC(C(=O)O)O3)ccc(C(C)=O)c1O (racemic) [6-Acetyl-7-[5-(4-acetyl-3-hydroxy-2-propylphenoxy)pentyloxy] -3,4-dihydro-2H-1-benzopyran-2-carbonsäure]",% Inhibition gegen Leukotriene LTB₄,LTB₄; [4],"44,4±13,1%"
same,% Inhibition gegen Leukotriene LTB₄,LTB₄; [5],"69,6±11,9%"
same,% Inhibition gegen Leukotriene LTC₄,LTC₄; [4],"9,5±19,2%"
same,% Inhibition gegen Leukotriene LTC₄,LTC₄; [5],"57,1+19,7%"
same,% Inhibition gegen Leukotriene LTD₄,LTD₄; [4],"30,8±15,4%"
same,% Inhibition gegen Leukotriene LTD₄,LTD₄; [5],"62,4±10,0%"
same,% Inhibition gegen Leukotriene LTE₄,LTE₄; Inhibitor Konzentration 1 Mikromol (µM),"29,8±15,0%"
same,% Inhibition gegen Leukotriene LTE₄,LTE₄; Inhibitor Konzentration 10 Mikromol (µM),"44,2± 9,8%"
same,sekretorische Aktivität von Bradykinin,Bradykinin,reduzieren
same,Hazardverhältnis,[1]; [6],"2,87"
same,Hazardverhältnis,[1]; [7],"3,80"
same,Hazardverhältnis,"[1]; 60 mg/kg intraperitoneal in 0,075 ml PEG-400, twice daily","4,77"
same,Hazardverhältnis,"[1]; 60 mg/kg oral in 0,15 ml Wasser, twice daily","12,0"
same,Hazardverhältnis,"[1]; 100 mg/kg oral in 0,15 ml Wasser, twice daily","64,2"
same,Hazardverhältnis,[1]; 20 µMol/kg oral (Tabelle 3),"1,45"
same,"Histopathological effects on cecum and colon (oedema, bleeding, necrosis, erosions, inflammatory cell infiltration)","[1]; 60 oder 100 mg/kg, in most cases",reduziert oder gänzlich zum Verschwinden gebracht
same,Activity against antibiotic-induced colitis,[1]; oral doses 10 bis 100 mg/kg,aktiv
same,Diarrhö,[1]; result in words,reduzierte
same,Histopathologie des Cecums und des Kolons,[1]; result in words,verbesserte in einem beträchtlichen Ausmass
same,Ueberlebensrate der mit Clidamycin behandelten Tiere,[1]; result in words,erhöht
same,Activity (reduction of myeloperoxidase level caused by acetic acid),"[2]; oral 30 und 90 mg/kg, Figur 3",aktiv
same,Wassertransport-Raten,[3],"praktisch gleich waren, wie diejenigen der Kontroll-Versuchstiere"
"CCCc1c(OCCCCCOc2cc3c(cc2C(C)=O)CCC(C(=O)OC)O3)ccc(C(C)=O)c1O (racemic) [6-Acetyl-7-[5-(4-acetyl-3-hydroxy-2-propylphenoxy)pentyloxy]-3,4-dihydro-2H-1-benzopyran-2-carbonsäure-methylester]",Hazardverhältnis,[1]; 20 µMol/kg oral (Tabelle 3),"3,42"
"O=C1CCN(c2ccccc2)N1 [Phenidon, reference compound]",Activity (reduction of myeloperoxidase level caused by acetic acid),"[2]; oral 100 und 200 mg/kg, Figur 2",aktiv
"CCCc1c(OCC(O)COc2ccc3c(=O)cc(C(=O)O)oc3c2CCC)ccc(C(C)=O)c1O (stereo not drawn) [Vergleichssubstanz 1, 7-[-3-(4-Acetyl-3-hydroxy-2-propyl-phenoxy)-2-hydroxypropoxy] -4-oxo-8-propyl-4H-1-benzopyran-2-carbonsäure, reference compound]",Hazardverhältnis,[1]; [6],"2,02^c"
same,Hazardverhältnis,[1]; [7],"1,42"
same,Activity against antibiotic-induced colitis,[1]; oral 10 mg/kg,inaktive
"CCCc1c(OCCCOc2ccc3c(=O)cc(CCCC(=O)O)oc3c2CCC)ccc(C(C)=O)c1O [Vergleichssubstanz 2, 7-[3-(4-Acetyl-3-hydroxy-2-propylphenoxy)propoxy]-4-oxo-8-propyl-4H-1-benzopryran-2-propancarbonsäure, reference compound]",Hazardverhältnis,"[1]; 13 mg/kg oral in 0,15 ml Wasser, twice daily","1,68"
same,Activity against antibiotic-induced colitis,[1]; oral 10 mg/kg,inaktive
